Experimental data published in patent publication US7183267B2, “β-lactamase inhibitors and methods of use thereof” (priority 2003, dated 2007).
Where “and” joins values, the source holds several entries; their conditions need not be identical. Equal entries are not always repeated. Where two headings read alike, the source gives them in different places.

Columns and labels:
TEM-1 β-lactamase [1] = molecular target: T1, TEM-1 β-lactamase (Escherichia coli, UniProt P62593); assay: TEM-1 β-lactamase inhibition assay (nitrocefin hydrolysis, 486 nm); format: biochemical
Method in brief: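 TEM-1 activity followed by nitrocefin hydrolysis at 486 nm, 25 °C, 50 mM sodium phosphate pH 7.0, 5% DMSO; inhibitor preincubated with enzyme 10 min before substrate. Ki obtained from rates at increasing inhibitor concentrations fitted to competitive-inhibition equations; penicillin G also used as substrate for KM and kcat.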

β-lactamase wt = β-lactamase wt (Escherichia coli, UniProt P62593); assay: Isothermal titration calorimetry, binding enthalpy, wild type
Protocol: (§1) The binding of the compounds of the present invention to β-lactamase was also measured by isothermal titration calorimetry.
(§2) These experiments, in combination with the inhibition assays, indicate that the compounds identified in this disclosure bind to the wild type as well as drug resistant beta lactamases with favorable binding enthalpies. This is a very important characteristic from the point of view of further optimization since it facilitates the achievement of extremely high affinities and low susceptibilities to drug resistant mutations and naturally occurring polymorphisms.
(§3) Isothermal titration calorimetry was performed on a high-precision VP-ITC titration calorimeter (Microcal Inc., Northampton, Mass.). β-Lactamase solutions were titrated with inhibitors in 50 mM sodium phosphate, 2% DMSO, pH 7.0, with β-lactamase concentrations ranging from 15 to 25 μM and inhibitor concentrations ranging from 300 to 1000 μM. The heat evolved from each injection was obtained by integrating the calorimetric signal. Heat of binding was obtained as the difference between the heat of reaction and the heat of inhibitor dilution. Data were analyzed using Origin 7.0 (OriginLab Corporation, Northampton, Mass.).

β-lactamase M69I = β-lactamase M69I (Escherichia coli, UniProt P62593, M67I); assay: Isothermal titration calorimetry, binding enthalpy, M69I mutant
Protocol: as §1, §2, §3

β-lactamase E104K = β-lactamase E104K (Escherichia coli, UniProt P62593, E102K); assay: Isothermal titration calorimetry, binding enthalpy, E104K mutant
Protocol: as §1, §2, §3

β-lactamase R244S = β-lactamase R244S (Escherichia coli, UniProt P62593, R241S); assay: Isothermal titration calorimetry, binding enthalpy, R244S mutant
Protocol: as §1, §2, §3

β-lactamase mutant E104K = β-lactamase mutant E104K (Escherichia coli, UniProt P62593, E102K); format: biochemical; settings: number higher than 1 reflects a loss of potency against mutant
Protocol: (§4) The inhibition of TEM-1 β-lactamase was determined spectrophotometrically. B-lactamase activity was followed by measuring the hydrolysis of nitrocefin, [3-(2,4-dinitrostyryl)-(6R, 7R)-7-(2-thienylacetamido)-ceph-3-em-4-carboxylic acid, E-isomer], (Calbiochem, San Diego, Calif., USA) at 486 nm. Inhibition assays were performed at 25° C. in 50 mM sodium phosphate, 5% DMSO, pH 7.0. […] Inhibitor was added to the enzyme and incubated for ten minutes before the addition of substrate. Inhibition constants (Ki) for the inhibitors are obtained at the desired temperature and solvent conditions by measuring the rate of substrate hydrolysis at increasing amounts of inhibitors.
(§5) Three of the most important mutations are M69I, R244S and E104K.

β-lactamase mutant M69I = β-lactamase mutant M69I (Escherichia coli, UniProt P62593, M67I); format: biochemical; settings: number higher than 1 reflects a loss of potency against mutant
Protocol: as §4, §5

β-lactamase mutant R244S = β-lactamase mutant R244S (Escherichia coli, UniProt P62593, R241S); format: biochemical; settings: number higher than 1 reflects a loss of potency against mutant
Protocol: as §4, §5

TEM-1 β-lactamase [2] = molecular target: T1, TEM-1 β-lactamase; assay: Isothermal titration calorimetry, binding to TEM-1 β-lactamase (Example 17); settings: ITC
Method in brief: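 TEM-1 β-lactamase (15–25 μM) titrated with inhibitor (300–1000 μM) in 50 mM sodium phosphate, 2% DMSO, pH 7.0. Integrated injection heats were corrected for inhibitor dilution heat to give binding heat.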

AmpC β-lactamase = molecular target: T2, AmpC β-lactamase (Escherichia coli, UniProt P00811); format: biochemical; settings: substrate hydrolysis by AmpC, 25° C., pH 7.0
T2 construct: made in house; host or cells: E. coli BL21 (DE3)
T2 sequence (P00811 20-377): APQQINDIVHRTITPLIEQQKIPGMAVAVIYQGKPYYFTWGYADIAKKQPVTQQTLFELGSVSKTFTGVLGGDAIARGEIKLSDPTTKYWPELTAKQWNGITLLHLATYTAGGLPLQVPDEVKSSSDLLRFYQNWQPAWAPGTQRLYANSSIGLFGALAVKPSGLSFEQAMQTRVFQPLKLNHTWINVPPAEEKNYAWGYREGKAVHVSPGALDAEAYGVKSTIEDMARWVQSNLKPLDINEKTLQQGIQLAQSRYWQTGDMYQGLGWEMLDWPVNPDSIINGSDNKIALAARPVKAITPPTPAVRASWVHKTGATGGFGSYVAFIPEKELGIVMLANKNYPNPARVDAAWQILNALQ
Protocol: The competitive inhibition of β-lactamase was determined spectrophotometrically using a Varian (Walnut Creek, Calif.) Cary 100 UV-Visible spectrophotometer. β-lactamase activity was followed by measuring the hydrolysis of nitrocefin, [3-(2,4-dinitrostyryl)-(6R, 7R)-7-(2-thienylacetamido)-ceph-3-em-4-carboxylic acid, E-isomer], (Calbiochem, San Diego, Calif.) at 486 nm. Inhibition assays were performed at 25° C. in 50 mM sodium phosphate, 5% DMSO, pH 7.0. […] Penicillin G (Sigma, St. Louis, Mo.) was also used as a substrate to determine KM and kcat.

Row | Structure (SMILES) | Ki (TEM-1 β-lactamase [1]; Ki from Lineweaver-Burke Analysis, values in parenthesis, Lineweaver-Burke analysis) | Ki (TEM-1 β-lactamase [1]; Ki, 25° C., 50 mM sodium phosphate, 5% DMSO, pH 7.0, enzyme 5 nM, nitrocefin 167 μM) | Ki (TEM-1 β-lactamase [1]; Ki, TEM-1 β-lactamase) | ΔH wt (β-lactamase wt) | ΔH M69I (β-lactamase M69I) | ΔH E104K (β-lactamase E104K) | ΔH R244S (β-lactamase R244S) | Loss of potency: ratio of the inhibitory constant between mutant and wild type (Potencywt/Potencymutant), E104K (β-lactamase mutant E104K) | Loss of potency: ratio of the inhibitory constant between mutant and wild type (Potencywt/Potencymutant), M69I (β-lactamase mutant M69I) | Loss of potency: ratio of the inhibitory constant between mutant and wild type (Potencywt/Potencymutant), R244S (β-lactamase mutant R244S) | ΔG (TEM-1 β-lactamase [2]) | ΔH (TEM-1 β-lactamase [2]) | −TΔS (TEM-1 β-lactamase [2]) | melting point | Km (AmpC β-lactamase) | kcat (AmpC β-lactamase) | Km (AmpC β-lactamase; read-out: KM)
1 | O=C(Oc1ccccc1[N+](=O)[O-])c1cc(B(O)O)cc([N+](=O)[O-])c1 [Compound (1b), 3-(2-Nitrophenoxycarbonyl)-5-nitrophenylboronic acid] | 1.18 µM | 12 ± 3 µM | 12 µM | -3.8 kcal/mol | -2 kcal/mol | -3.9 kcal/mol | -9.5 kcal/mol | 0.92 | 1.0 | 1.2 | -6.42 kcal/mol | -4.011 kcal/mol | -2.409 kcal/mol | 128 to 130 °C | – | – | –
2 | O=C(Cc1cccs1)N[C@@H]1C(=O)N2C(C(=O)O)=C(/C=C/c3ccc([N+](=O)[O-])cc3[N+](=O)[O-])CS[C@H]12 [nitrocefin, 3-(2,4-dinitrostyryl)-(6R, 7R)-7-(2-thienylacetamido)-ceph-3-em-4-carboxylic acid, E-isomer] | – | – | – | – | – | – | – | – | – | – | – | – | – | – | 250 µM and 253 µM | 975 s⁻¹ and 976 ± 46 s⁻¹ | –
3 | CC1(C)S[C@@H]2[C@H](NC(=O)Cc3ccccc3)C(=O)N2[C@H]1C(=O)O [penicillin G, Penicillin G] | – | – | – | – | – | – | – | – | – | – | – | – | – | – | – | 198 ± 4 s⁻¹ | 28 ± 3 µM
